Data as given in PMC10600239, “Selective MCL-1 inhibitor ABBV-467 is efficacious in tumor models but is associated with cardiac troponin increases in patients” (Communications Medicine, 2023).
“And” between values parts separate entries of the source, which are not always exact repeats. Equal entries are not always repeated.

Test system: AMO-1 xenografts
Experiment: AMO-1 xenograft efficacy (tumor volume, body weight)
Assay type: in vivo, mouse
Design: key to Anti-tumor Activity vs. AMO-1 (DSMZ), Median / Anti-tumor Activity vs. AMO-1 (DSMZ), individual animal / Anti-tumor Activity vs. AMO-1 (DSMZ), Mean: tumor volume in mm^3 (length × width^2/2)
Description: All animal studies were conducted in accordance with the guidelines approved by the Institutional Animal Care and Use Committees of AbbVie. The research protocol was approved by In Vivo Pharmacology at AbbVie prior to study initiation but was not publicly registered or disclosed. Female C.B-17 SCID-beige mice (AMO-1, OPM-2, NCI-H929, and OCI-AML2 xenografts) and female NSG mice (MV4-11-Red.Fluc systemic) were purchased from Charles River Laboratories (Wilmington, MA). Animals were housed in a light cycle-controlled room with HEPA filtration at 22 °C. Animals had nesting and climbing cage topper as the primary environmental enrichment. Animals were inoculated subcutaneously in the right flank with 5 × 10^6 (AMO-1, OPM-2, NCI-H929, and OCI-AML2) or intravenous (IV) with 5 × 10^6 (MV4-11-Red.Fluc). The inoculation volume (0.2 mL) comprised a 50:50 mixture of cells in growth media and Matrigel (BD Biosciences) for subcutaneous injections and 100% phosphate-buffered saline for IV administration. All cell lines used in this publication were authenticated using IDEXX for STR profiling as well as their IMPACT and human IMPACT panels for pathogen screening. Electronic calipers were used to measure the length and width of each tumor 2 to 3 times per week. Tumor volume was estimated by applying the following equation: volume = length × width^2/2. All groups remained blinded during measurements and dosing; only veterinary staff were aware of group identity. When tumors reached approximately 200 mm^3, mice were randomized by match and distributed into treatment and control groups. All xenograft trials were conducted using 5 to 10 mice per group, and all mice were ear tagged and monitored individually throughout the studies. […] Tumor burden in the systemic MV4-11-Red.Fluc experiment was measured using an IVIS® spectrum from PerkinElmer by taking the total photon flux of the entire dorsal side of an individual mouse. […] A background control mouse that was tumor naive but received D-Luciferin was placed in the upper left corner of each image. The total flux from this animal was subtracted from the total flux of each animal present in the image.
For in vivo studies, maximal tumor growth inhibition (TGI) was calculated as the greatest treatment response using the following equation: Maximal TGI = (1 − mean tumor volume of the treated group/mean tumor volume of the vehicle control group) × 100. The tumor growth delay (TGD) percentage was determined as the percentage increase of the median time period for the treatment group to reach an arbitrary tumor volume of 1000 mm^3 relative to the vehicle control group. […] A power analysis was conducted using historical data to determine the number of animals required to yield significance of 0.05 at a 30% difference. […] Data from experiments in vivo were analyzed using the student’s t-test for TGI values and the Mann–Whitney U test for TGD using Excel and GraphPad Prism. Fisher’s exact test was used to probe significance of differences in response frequency.

[1] = 6.25 mg/kg IV QDx1, Day 13 (day before dosing begins)
[2] = 6.25 mg/kg Q7Dx2 IV, SCID-beige female mice, Day 21
[3] = 6.25 mg/kg Q7Dx2 IV, SCID-beige female mice, Day 24

Cc1c(Cl)c2c(Cl)c(C)c1-c1c(-c3ccc(F)cc3)sc3ncnc(c13)O[C@@H](C(=O)O)Cc1cc(ccc1OCc1ccnc(-c3ccc(OC[C@H]4COCCO4)cc3)n1)OC[C@@H](CN1CCN(C)CC1)O2 [Compound A-1747745.0]
Anti-tumor Activity vs. AMO-1 (DSMZ), Median (6.25 mg/kg IV QDx1, day 23): 225.89
Group Mean, Body Weight (6.25 mg/kg IV QDx1, day 23): 22.00 g
Anti-tumor Activity vs. AMO-1 (DSMZ), Mean (6.25 mg/kg IV QDx1, day 26): 454.97
Anti-tumor Activity vs. AMO-1 (DSMZ), Median (6.25 mg/kg IV QDx1, day 26): 392.97
Anti-tumor Activity vs. AMO-1 (DSMZ), Mean (6.25 mg/kg IV QDx1, day 28): 690.68
Anti-tumor Activity vs. AMO-1 (DSMZ), Median (6.25 mg/kg IV QDx1, day 28): 578.26
Group Mean, Body Weight (6.25 mg/kg IV QDx1, day 28): 22.25 g
Anti-tumor Activity vs. AMO-1 (DSMZ), Mean (6.25 mg/kg IV QDx1, day 30): 882.20
Anti-tumor Activity vs. AMO-1 (DSMZ), Median (6.25 mg/kg IV QDx1, day 30): 791.67
Anti-tumor Activity vs. AMO-1 (DSMZ), Mean (6.25 mg/kg IV QDx1, day 34): 1592.98
Anti-tumor Activity vs. AMO-1 (DSMZ), Median (6.25 mg/kg IV QDx1, day 34): 1465.20
Anti-tumor Activity vs. AMO-1 (DSMZ), Mean (6.25 mg/kg IV QDx1, day 36): 1754.60
Anti-tumor Activity vs. AMO-1 (DSMZ), Median (6.25 mg/kg IV QDx1, day 36): 1695.89
Xenograft AMO-1 (DSMZ) tumor volume Day 13, Mean [1]: 216.25 mm³
Xenograft AMO-1 (DSMZ) tumor volume Day 13, Median [1]: 216.39 mm³
% T/C (mean) [1]: 100.07%
% T/C (median) [1]: 100.10%
Xenograft AMO-1 (DSMZ) (mm³) Day 13, individual animals (6.25 mg/kg IV QDx1, SCID-beige female mice, Day 13 (randomization, day before dosing begins)): 219 mm³ and 211 mm³ and 216 mm³ and 221 mm³ and 217 mm³ and 214 mm³ and 224 mm³ and 208 mm³
Mortality Observation Day 32 (6.25 mg/kg Q7Dx2 IV, AMO-1 (DSMZ) xenograft, SCID-beige female mice, per animal): EUTV (6×) and GRPX
% T/C (mean) (6.25 mg/kg Q7Dx2 IV, Day 13): 101.00%
% T/C (median) (6.25 mg/kg Q7Dx2 IV, Day 13): 98.08%
% T/C (mean) (6.25 mg/kg Q7Dx2 IV, Day 19): 30.07%
% T/C (median) (6.25 mg/kg Q7Dx2 IV, Day 19): 31.46%
% T/C (mean) (6.25 mg/kg Q7Dx2 IV, Day 21): 29.54%
% T/C (median) (6.25 mg/kg Q7Dx2 IV, Day 21): 27.04%
% T/C (mean) (6.25 mg/kg Q7Dx2 IV, Day 24): 22.09%
% T/C (median) (6.25 mg/kg Q7Dx2 IV, Day 24): 20.32%
% T/C (mean) (6.25 mg/kg Q7Dx2 IV, Day 26): 21.67%
% T/C (median) (6.25 mg/kg Q7Dx2 IV, Day 26): 14.15%
% T/C (mean) (6.25 mg/kg Q7Dx2 IV, Day 28): 23.23%
% T/C (median) (6.25 mg/kg Q7Dx2 IV, Day 28): 13.94%
Xenograft AMO-1 (DSMZ) Day 19 Mean (6.25 mg/kg Q7Dx2 IV, SCID-beige female mice, Day 19, group mean tumor volume): 118.80 mm³
Xenograft AMO-1 (DSMZ) Day 19 Median (6.25 mg/kg Q7Dx2 IV, SCID-beige female mice, Day 19, group median tumor volume): 115.27 mm³
Xenograft AMO-1 (DSMZ) (mm³) Day 19, individual animals (6.25 mg/kg Q7Dx2 IV, SCID-beige female mice, Day 19, individual tumor volumes): 119 mm³ and 199 mm³ and 123 mm³ and 80 mm³ and 92 mm³ and 115 mm³ and 104 mm³
Xenograft AMO-1 (DSMZ) Day 21, Mean [2]: 190.88 mm³
Xenograft AMO-1 (DSMZ) Day 21, Median [2]: 163.99 mm³
Xenograft AMO-1 (DSMZ) tumor volume Day 21, individual animals [2]: 209 mm³ and 370 mm³ and 179 mm³ and 144 mm³ and 116 mm³ and 164 mm³ and 155 mm³
Xenograft AMO-1 (DSMZ) (mm³) Day 24, individual animals [3]: 184 mm³ and 451 mm³ and 200 mm³ and 190 mm³ and 174 mm³ and 138 mm³ and 133 mm³
Xenograft AMO-1 (DSMZ) tumor volume Day 24, Mean [3]: 210.06 mm³
